Test results from patent US20100056544A1, “Salts with CRTH2 Antagonist Activity” (Oxagen Limited, priority 2007, published 2010).
Read-outs that look alike come from different tables or passages of the source. Blank lines part the entries; values can stand above or below the compound they belong to.

Legend:
[1] = cited from earlier work; for pKa of base: Table 5; for pKa 1: pKa value of base, Tables 2-4
[2] = Solubility of the salts in water determined by HPLC, with pH of the filtered mixtures; conditions: for Solubility: HPLC grade water, stirred 18 hours at 15 to 25° C., filtered, HPLC
[3] = basic solubility screen of Compound 1 free acid in solvents; type: physicochemical; conditions: for Solution Yes/No 20 vol R.T.: 50 mg, stirred at 15 to 25° C.
[4] = pH of the filtered mixtures in water

Compound: CNC[C@H](O)[C@@H](O)[C@H](O)[C@H](O)CO [N-methyl Glucamine]
pKa of base [1]: 8

Compound: C[N+](C)(C)CC(=O)O [Betaine]
pKa of base [1]: 12.2

Compound: OCCN1CCOCC1 [4-(2-Hydroxyethyl)morpholine]
pKa of base [1]: 7.4
pKa 1 [1]: 7.4

Compound: Deanol
pKa of base [1]: 8.8
pKa 1 [1]: 8.8

Solubility [2]: 84.28 mg/mL
pH [2, 4]: 9
solubility in water compared (in words) ([2]; water): most soluble
Compound: Cc1c(Cc2ccc3ccccc3n2)c2cc(F)ccc2n1CC(=O)O [Sodium, (5-fluoro-2-methyl-3-quinolin-2-ylmethyl-indol-1-yl)acetic acid]
pKa of base [1]: 14.0

Compound: C[N+](C)(C)CCO [Choline]
pKa of base [1]: >11
pKa 1 [1]: >11

Compound: OCCN1CCCC1 [1-(2-Hydroxyethyl)pyrrolidine]
pKa of base [1]: 9.4
pKa 1 [1]: 9.4

Solubility [2]: 32.36 mg/mL
pH [2, 4]: 12
pH ([2]; pH of the filtered mixtures in water, listed as potassium): 12
Compound: Cc1c(Cc2ccc3ccccc3n2)c2cc(F)ccc2n1CC(=O)O [Potassium, (5-fluoro-2-methyl-3-quinolin-2-ylmethyl-indol-1-yl)acetic acid]
pKa of base [1]: 14.0

Solubility [2]: 0.05 mg/mL
pH [2, 4]: 7
solubility in NMP (50 mg retained in 20 vol) ([3]; NMP at 15 to 25° C. after obtaining a solution at 100° C.): ≥ 50 mg per ml
Solution Yes/No 20 vol reflux ([3]; solvent Acetone): No
Solution Yes/No 40 vol reflux ([3]; solvent Acetone): No
Solution on cooling to R.T. ([3]; solvent Acetone): No
Solution Yes/No 20 vol R.T. ([3]; solvent Acetone): No
Solution Yes/No 20 vol reflux ([3]; solvent Acetonitrile): No
Solution Yes/No 40 vol reflux ([3]; solvent Acetonitrile): No
Solution on cooling to R.T. ([3]; solvent Acetonitrile): No
Solution Yes/No 20 vol R.T. ([3]; solvent Acetonitrile): No
Solution Yes/No 20 vol reflux ([3]; solvent Chloroform): No
Solution Yes/No 40 vol reflux ([3]; solvent Chloroform): No
Solution on cooling to R.T. ([3]; solvent Chloroform): No
Solution Yes/No 20 vol R.T. ([3]; solvent Chloroform): No
Solution on cooling to R.T. ([3]; solvent DMF): No
Solution Yes/No 20 vol R.T. ([3]; solvent DMF): No
Solution Yes/No 20 vol reflux ([3]; solvent DMF, heated to 100° C.): No
Solution Yes/No 40 vol reflux ([3]; solvent DMF, heated to 100° C.): Yes
Solution on cooling to R.T. ([3]; solvent DMSO): No
Solution Yes/No 20 vol R.T. ([3]; solvent DMSO): No
Solution Yes/No 20 vol reflux ([3]; solvent DMSO, heated to 100° C.): Yes
Solution Yes/No 20 vol reflux ([3]; solvent Ethanol): No
Solution Yes/No 40 vol reflux ([3]; solvent Ethanol): No
Solution on cooling to R.T. ([3]; solvent Ethanol): No
Solution Yes/No 20 vol R.T. ([3]; solvent Ethanol): No
Solution Yes/No 20 vol reflux ([3]; solvent Ethyl acetate): No
Solution Yes/No 40 vol reflux ([3]; solvent Ethyl acetate): No
Solution on cooling to R.T. ([3]; solvent Ethyl acetate): No
Solution Yes/No 20 vol R.T. ([3]; solvent Ethyl acetate): No
Solution Yes/No 20 vol reflux ([3]; solvent Heptanes): No
Solution Yes/No 40 vol reflux ([3]; solvent Heptanes): No
Solution on cooling to R.T. ([3]; solvent Heptanes): No
Solution Yes/No 20 vol R.T. ([3]; solvent Heptanes): No
Solution Yes/No 20 vol reflux ([3]; solvent IPA): No
Solution Yes/No 40 vol reflux ([3]; solvent IPA): No
Solution on cooling to R.T. ([3]; solvent IPA): No
Solution Yes/No 20 vol R.T. ([3]; solvent IPA): No
Solution Yes/No 20 vol reflux ([3]; solvent Methanol): No
Solution Yes/No 40 vol reflux ([3]; solvent Methanol): No
Solution on cooling to R.T. ([3]; solvent Methanol): No
Solution Yes/No 20 vol R.T. ([3]; solvent Methanol): No
Solution on cooling to R.T. ([3]; solvent NMP): Yes
Solution Yes/No 20 vol R.T. ([3]; solvent NMP): No
Solution Yes/No 20 vol reflux ([3]; solvent NMP, heated to 100° C.): Yes
Solution Yes/No 20 vol reflux ([3]; solvent TBME): No
Solution Yes/No 40 vol reflux ([3]; solvent TBME): No
Solution on cooling to R.T. ([3]; solvent TBME): No
Solution Yes/No 20 vol R.T. ([3]; solvent TBME): No
Solution Yes/No 20 vol reflux ([3]; solvent Toluene): No
Solution Yes/No 40 vol reflux ([3]; solvent Toluene): No
Solution on cooling to R.T. ([3]; solvent Toluene): No
Solution Yes/No 20 vol R.T. ([3]; solvent Toluene): No
Solution Yes/No 20 vol reflux ([3]; solvent Water): No
Solution Yes/No 40 vol reflux ([3]; solvent Water): No
Solution on cooling to R.T. ([3]; solvent Water): No
Solution Yes/No 20 vol R.T. ([3]; solvent Water): No
Solubility ([3]; variety of solvents (Table 1), organic solvent or mixture, thermodynamic from solid): < 25 mg/mL
Compound: Cc1c(Cc2ccc3ccccc3n2)c2cc(F)ccc2n1CC(=O)O [Compound 1, (5-fluoro-2-methyl-3-quinolin-2-ylmethyl-indol-1-yl)acetic acid]

pH [2]: 8
Solubility [2]: 4.98 mg/mL
Compound: Cc1c(Cc2ccc3ccccc3n2)c2cc(F)ccc2n1CC(=O)O [Ammonium, (5-fluoro-2-methyl-3-quinolin-2-ylmethyl-indol-1-yl)acetic acid]

Compound: c1c[nH]cn1 [Imidazole]
pKa of base [1]: 7
pKa 1 [1]: 7

Solubility [2]: 3.26 mg/mL
pH [2, 4]: 9
Compound: Cc1c(Cc2ccc3ccccc3n2)c2cc(F)ccc2n1CC(=O)O [Tris, (5-fluoro-2-methyl-3-quinolin-2-ylmethyl-indol-1-yl)acetic acid]
pKa of base [1]: 8
